From patent US8496927B2, “CD20 negatively converted B-cell malignant lymphoma cell line and utilization thereof” (National University Corporation Nagoya University, priority 2006, dated 2013)

Key:
IRF4 and Pu.1 = IRF4 and Pu.1 expression in RRBL1 cells by western blotting; assay type: cell-based, human; settings: time course after Aza injection
Experimental: (§1) Subsequently, changes with time regarding CD20 mRNA expression and CD20 protein expression were examined (FIG. 7B) Aza was injected to a culture solution on day 0, and cultured at 37° C. for 24 hours (day 1). Then, the cells were washed and further cultured for 1 to 6 days (day 2 to day 7). RNA and protein were extracted from the cells after culturing, and subjected to analyses by western blotting (using anti-CD20 antibody, anti-IRF4 antibody, anti-PU.1 antibody, anti-DNMT1 antibody, and […]) and RT-PCR.
(§2) IRF4 and Pu.1 are transcriptional factors that have been reported to bind to a CD20 gene promoter. […] DNMT1 (DNA methyltransferase 1) has reported to be decomposed by Aza.

[1] = system: DNMT1 (DNA methyltransferase 1); experiment: DNMT1 expression in RRBL1 cells by western blotting; assay type: cell-based, human; settings: day 1 after Aza injection
Experimental: as §1, §2

CD20 mRNA = CD20 mRNA expression in RRBL1 cells by RT-PCR; assay type: cell-based, human; settings: for induction of CD20 mRNA: added to RRBL1, analyzed with elapse of time (summary)
Experimental: (§3) 5-aza-2′-deoxycytidine (SIGMA, hereinafter abbreviated as “Aza”) was injected to a culture solution of RRBL1 cells, and the cells were washed after 24 hours. After culturing for further 2 days, RNA and the whole-cell lysate was extracted from the cells, and subjected to analyses by RT-PCR and western blotting. As a result, CD20 mRNA expression increased after the Aza treatment (FIG. 7A, RT, lane 2). In the western blotting analysis, the CD20 protein expression was observed after the Aza treatment (FIG. 7A, IB lane 2).
as §1

CD20 protein = CD20 protein expression in RRBL1 cells by western blotting; assay type: cell-based, human; settings: for induction of CD20 protein: added to RRBL1, analyzed with elapse of time (summary)
Experimental: as §3, §1
Aza and TSA (Trichostatin: histone deacetylase inhibitor) were injected singly or in combination to a culture supernatant of RRBL1 cells. The cells were washed after one day from Aza injection. After further cultured for 2 days, protein was extracted from the cells. In the TSA injected group, protein was extracted from the cells at the point of 24 hours from TSA injection. For the group injected in combination use, Aza was first injected and cultured for 1 day. The cells after washed were cultured for 1 day, then TSA was injected thereto, and further, the cells were dissolved after the elapse of one day to extract protein. Thus obtained each sample was subjected to SDS-PAGE, and western blotting using an anti-CD20 antibody and an anti-GAPDH antibody was then performed.

CD20 positive lymphoma = settings: Non-patent document 10; cited from earlier work
RRBL1 cells [2] = experiment: Number of living RRBL1 cells treated with Aza and TSA, cultured with or without rituximab; assay type: cell-based, human; settings: cultured for 2 days
Source text: RRBL1 cells (untreated group) and RRBL1 cells treated with Aza and TSA (treated group) were respectively cultured for 2 days in the absence of rituximab (●, ▪) or in the presence of rituximab (♦, ▴), and the number of living cells were compared (FIG. 8C).

[3] = system: CD20 positive malignant lymphoma; experiment: Use experience of rituximab-containing chemotherapy, Hospital of Nagoya University; assay type: in vivo, human
Experimental: Cases of CD20 positive malignant lymphoma in which rituximab-containing chemotherapy was carried out in the Hospital of Nagoya University, School of Medicine are shown. The rituximab-containing chemotherapies were performed in 124 cases in about 5 years from […] to 2006, and in 36 cases (29%) among 124 cases, recurrence or relapse were observed. In 19 cases, about half of these cases, tissue biopsies were carried out again, and in 5 cases (26.3% among the cases subjected to rebiopsy), negative conversion of CD20 expression was confirmed. Prognoses of the cases where CD20 was negatively converted were extremely bad, and patients in all the cases died within 1 year after the confirmation of negative conversion.
In about 5 years from September 2001, CD20 positive malignant lymphoma cases subjected to chemotherapy including rituximab in this facility was 124 cases (FIG. 13), and 36 cases (29.0%) in the 124 cases were recurred or relapsed.

Raji cells = experiment: Rituximab resistance test: number of living cells after culture with rituximab; assay type: cell-based; settings: rituximab 500 mg/ml, 10% FCS, 37° C. for 2 days
Experimental: (§4) Rituximab ([…]) was added to a PRMI1640 culture solution containing 10% FCS and the solution was cultured at 37° C. for 2 days, and the number of living cells was measured. Further, Raji cells were cultured under the same conditions (control group). […] Thus, it was confirmed that the RRBL1 cells indicates rituximab resistance in vitro.

RRBL1 cells [4] = experiment: as above; assay type: cell-based, human; settings: rituximab 500 mg/ml, 10% FCS, 37° C. for 2 days
Experimental: as §4

[5] = RRBL1 cells, Aza on day 0, washed day 1, cultured to day 7
[6] = RRBL1 cells, washed after 24 hours, cultured further 2 days

Row | Molecule | IRF4 and Pu.1 expression (IRF4 and Pu.1) | DNMT1 expression [1] | CD20 mRNA expression, change with time (CD20 mRNA; [5]) | CD20 mRNA expression (RT-PCR) (CD20 mRNA; [6]) | induction of CD20 mRNA (CD20 mRNA) | culturing time by which CD20 expression is induced (CD20 protein; RRBL1) [days] | CD20 protein expression, change with time (CD20 protein; [5]) | day on which CD20 protein expression level reached peak (CD20 protein; [5]) [days] | CD20 protein expression (western blotting) (CD20 protein; [6]) | induction of CD20 protein (CD20 protein) | patients showing rituximab resistance (CD20 positive lymphoma) | proliferation (number of living cells) in the presence of rituximab (RRBL1 cells [2]) | cases with negative conversion (disappearance or decrease) of CD20 expression ([3]; 5 of 19 recurred/relapsed cases subjected to rebiopsy, FCM and immunostaining) [%] | cases recurred or relapsed ([3]; 36 of 124 cases given rituximab-containing chemotherapy, about 5 years from 2001) [%] | proliferation (number of living cells) (Raji cells) | proliferation (number of living cells) (RRBL1 cells [4])
1 | Nc1ncn([C@H]2C[C@H](O)[C@@H](CO)O2)c(=O)n1 [Aza, 5-aza-2′-deoxycytidine] | tendency of temporal increase | significant decrease | the same tendency as the CD20 protein expression | increased | possible | 1 to 7 | increased from day 1 | 3 | observed | possible |  |  |  |  |  | 
2 | CC(/C=C/C(=O)NO)=C\[C@@H](C)C(=O)c1ccc(N(C)C)cc1 [TSA, Trichostatin A] |  |  |  |  | possible |  |  |  |  | possible |  |  |  |  |  | 
3 | rituximab |  |  |  |  |  |  |  |  |  |  | 5 out of 48 | significantly inhibited | 26.3 | 29 | significantly repressed | repression of proliferation was not observed
